Our source for the EC50 values is US8916702B2 (priority 2012, dated 2014).

SMILES strings stand for the structures. pEC50: −log10 of the molar value.

The first assay relates to HCV pseudoparticles (genotype 1a HCV E1 and E2 envelope, H77C isolate). In words: microbe, parasite or virus in culture. Type of assay: cell-based. The following applies: Hepatitis C virus, Huh-7, 48 h, HCV pseudoparticle infection of Huh7 cells, luciferase 2 days after infection; average of duplicates.
What is called pEC50 is −log10 of the EC50, conventionally taken in molar units. `COC(=O)[C@H](CCNC(=O)C(=O)NC(C)C1CC1)NC(=O)c1ccc(Nc2nc(NC3(c4ccc(Cl)cc4)CC3)nc(OCC(F)(F)F)n2)cc1` (some centres unmarked) [Compound 1417] had a pEC50 of 9.80.
The same measure, in the same setting: with `COC(=O)[C@H](CCNC(=O)C(=O)NC(c1ccc(OC)cc1)C1CC1)NC(=O)c1ccc(Nc2nc(NC3(c4ccc(Cl)cc4)CC3)nc(OCC(F)(F)F)n2)cc1` (some centres unmarked) [Compound 1418] the figure was 9.55.

Staying with this assay, now noted: Hepatitis C virus, Huh-7, 48 h, read-out: Activity (EC50 class), HCV pseudoparticle infection of Huh7 cells, luciferase 2 days after infection; EC50 expressed as class A/B.
Take `O=C(NCCn1cccn1)C(=O)NC[C@H](NC(=O)c1ccc(Nc2nc(NC3(c4ccc(Cl)cc4)CC3)nc(OCC(F)(F)F)n2)cc1)C(=O)O` [Compound 1411]: the negative logarithm of the EC50 (pEC50) is 8.00 to 11.00.
Same read-out and setting: as for `Cc1nccn1CCNC(=O)C(=O)NC[C@H](NC(=O)c1ccc(Nc2nc(NC3(c4ccc(Cl)cc4)CC3)nc(OCC(F)(F)F)n2)cc1)C(=O)O` [Compound 1412], the figure is 6.00 to 8.00; as for `Cn1cc(CCNC(=O)C(=O)NC[C@@H](NC(=O)c2ccc(Nc3nc(NC4(c5ccc(Cl)cc5)CC4)nc(OCC(F)(F)F)n3)cc2)C(=O)O)cn1` [Compound 1413], 8.00 to 11.00.
On the same count and under the same terms, as for `O=C(NCC1CCc2ccccc21)C(=O)NC[C@H](NC(=O)c1ccc(Nc2nc(NC3(c4ccc(Cl)cc4)CC3)nc(OCC(F)(F)F)n2)cc1)C(=O)O` (some centres unmarked) [Compound 1414], the figure is 8.00 to 11.00; as for `O=C(NC[C@H](NC(=O)c1ccc(Nc2nc(NC3(c4ccc(Cl)cc4)CC3)nc(OCC(F)(F)F)n2)cc1)C(=O)O)C(=O)NC1(Cc2ccccc2)CC1` [Compound 1415], 8.00 to 11.00.
As for `COC(=O)[C@@H](CCNC(=O)C(=O)NCC1CC1c1cccc(OC)c1)NC(=O)c1ccc(Nc2nc(NC3(c4ccc(Cl)cc4)CC3)nc(OCC(F)(F)F)n2)cc1` (some centres unmarked) [Compound 1416], the pEC50 is 8.00 to 11.00.
On the same count and under the same terms, as for `COC(=O)[C@H](CCNC(=O)C(=O)NC(C)C1CC1)NC(=O)c1ccc(Nc2nc(NC3(c4ccc(Cl)cc4)CC3)nc(OCC(F)(F)F)n2)cc1` (some centres unmarked) [Compound 1417], the figure is 8.00 to 11.00.
Still for that read-out and setting: with `COC(=O)[C@H](CCNC(=O)C(=O)NC(c1ccc(OC)cc1)C1CC1)NC(=O)c1ccc(Nc2nc(NC3(c4ccc(Cl)cc4)CC3)nc(OCC(F)(F)F)n2)cc1` (some centres unmarked) [Compound 1418] the figure was 8.00 to 11.00; with `COCC1(CNC(=O)C(=O)NCC[C@@H](NC(=O)c2ccc(Nc3nc(NC4(c5ccc(Cl)cc5)CC4)nc(OCC(F)(F)F)n3)cc2)C(=O)O)CC1` [Compound 1419], 8.00 to 11.00; with `C[C@@H](NC(=O)C(=O)NCC[C@H](NC(=O)c1ccc(Nc2nc(NC3(c4ccc(Cl)cc4)CC3)nc(OCC(F)(F)F)n2)cc1)C(=O)O)C1CC1` [Compound 1420], 8.00 to 11.00.
In the case of `O=C(NCC[C@H](NC(=O)c1ccc(Nc2nc(NC3(c4ccc(Cl)cc4)CC3)nc(OCC(F)(F)F)n2)cc1)C(=O)O)C(=O)NCC1(c2ccccc2)CC1` [Compound 1421], the pEC50 was 8.00 to 11.00.
Still for that read-out and setting: as for `CCOCC1(CNC(=O)C(=O)NCC[C@H](NC(=O)c2ccc(Nc3nc(NC4(c5ccc(Cl)cc5)CC4)nc(OCC(F)(F)F)n3)cc2)C(=O)O)CC1` [Compound 1422], the figure is 8.00 to 11.00.
The same measure, in the same setting: with `COc1cccc(C2CC2CNC(=O)C(=O)NCC[C@H](NC(=O)c2ccc(Nc3nc(NC4(c5ccc(Cl)cc5)CC4)nc(OCC(F)(F)F)n3)cc2)C(=O)O)c1` (some centres unmarked) [Compound 1423] the figure was 8.00 to 11.00; with `O=C(NCC[C@H](NC(=O)c1ccc(Nc2nc(NC3(c4ccc(Cl)cc4)CC3)nc(OCC(F)(F)F)n2)cc1)C(=O)O)C(=O)NCC1(CO)CC1` [Compound 1424], 8.00 to 11.00; with `CC(C)(C)OC(=O)NC1(CNC(=O)C(=O)NCC[C@H](NC(=O)c2ccc(Nc3nc(NC4(c5ccc(Cl)cc5)CC4)nc(OCC(F)(F)F)n3)cc2)C(=O)O)CC1` [Compound 1425], 8.00 to 11.00.
`O=C(NCC[C@H](NC(=O)c1ccc(Nc2nc(NC3(c4ccc(Cl)cc4)CC3)nc(OCC(F)(F)F)n2)cc1)C(=O)O)C(=O)NCC1(CN2CCOCC2)CC1` [Compound 1426]: the pEC50 was 8.00 to 11.00.
On the same count and under the same terms, as for `Cc1cc(C)n(CC2(CNC(=O)C(=O)NCC[C@H](NC(=O)c3ccc(Nc4nc(NC5(c6ccc(Cl)cc6)CC5)nc(OCC(F)(F)F)n4)cc3)C(=O)O)CC2)n1` [Compound 1427], the figure is 8.00 to 11.00; as for `O=C(NCC[C@H](NC(=O)c1ccc(Nc2nc(NC3(c4ccc(Cl)cc4)CC3)nc(OCC(F)(F)F)n2)cc1)C(=O)O)C(=O)NCC1(Cn2cccn2)CC1` [Compound 1428], 8.00 to 11.00.
